pIC50: −log10 of the molar value.
Molecular target: α5β1 integrin (Homo sapiens, UniProt P05556+P08648)
Assay: In vitro binding assay (a): inhibition of binding of α5β1 integrin to fibronectin fragment Fn9-10 (Origen electrochemiluminescence)
Conditions: recombinant human α5β1 vs Fn9-10 ligand; geometric mean where tested more than once
Excerpt: (a) In Vitro Binding Assay
The assay determined the ability of compounds to inhibit binding of α5β1 integrin to a cognate ligand, a fragment of human fibronectin. The assay used Origen technology (IGEN International) to measure the compound activity. Briefly, α5β1 integrin was coated onto epoxy-paramagnetic beads (Dynal Biotech UK, Bromborough, Wirral, CH62 3QL, UK, Catalogue No 140.11) and biotinylated-fibronectin ligand was coupled to strepatividin labeled Tag-NHS-Ester (BioVeris Corporation, Witney, Oxfordshire, OX28 4GE, UK, Catalogue No 110034). The ruthenium-labeled tag emits an electrochemiluminescence signal upon stimulation which is detected by the Origen reader. Thus, interaction of integrin and ligand causes association of bead and tag, and the resulting electrochemiluminescence signal reflects the level of integrin interaction with fibronectin.
20 μg of recombinant human α5β1 was coated onto 4×10(7) epoxy-paramagnetic beads according to manufacturers instructions at 4° C. for 24 hours. Integrin coating and corresponding activity was subsequently measured for each batch but typically, 25 ng of coated protein was used per assay well.
A DNA fragment encoding the domains 9-10 (amino-acids 1325-1509) of human fibronectin (Swiss-Prot Accession No. P02751) was isolated from cDNA libraries using standard molecular biology and PCR cloning techniques. The cDNA fragment was sub-cloned into a pT73.3 expression vector containing a GST-epitope tag (developed at AstraZeneca; Bagnall et al., Protein Expression and Purification, 2003, 27: 1-11). Following expression in E. coli, the expressed protein, termed Fn9-10, was purified using the GST-tag using standard purification techniques. The recombinant Fn9-10 was subsequently biotinylated using a EZ-link Sulfo-NHS-LC-Biotinylation kit (Perbio Science UK Ltd., Cramlington, Northumberland, NE23 1WA, UK, Catalogue No. 21335) and made to give a final concentration of approximately 1 mg/ml. Tag-NHS-Ester was labeled with streptavidin by incubation at room temperature following manufacturers instructions and buffer-exchanged into PBS to give a concentration of 0.5 mg/ ml. Immediately prior to the assay, biotinylated-Fn9-10 and Streptavidin-labeled Tag were diluted in Assay Buffer to give a final concentrations of 0.6 ug/ml and 1.5 ug/ml respectively. The Fn9-10 and Tag solutions were then mixed together in equal volumes and incubated on ice for at least 30 minutes prior to the assay.
Test compounds were prepared as 10 mM stock solutions in DMSO (Sigma-Aldrich Company Ltd, Gillingham, Dorset SP8 4XT Catalogue No. 154938) and serially diluted with 4% DMSO to give a range of test concentrations at ×4 required final concentration. Aliquots (20 μl) of each compound dilution were placed into each well of a 384-well round bottomed polypropylene plate (Matrix Technologies, Wilmslow, Cheshire, SK9 3LP, Catalogue No. 4340 384). Each plate also contained control wells: maximum signal was created using wells containing 20 μl of 4% DMSO, and minimum signal corresponding to no binding was created using wells containing 20 μl of 80 mM EDTA (Sigma Catalogue No. E7889).
For the assay, 25 ng(20 ul) of a5b1-bead suspension and 40 μl of the Fn9-10/Tag pre-incubated solution were added to each well containing 20 μl of compound or control solution. Assay plates were then incubated at room temperature for a minimum of 6 hours before being analysed on an Origen plate reader. The minimum value was subtracted from all values, and the signal was plotted against compound concentration to generate IC50 data.
The data in the above table was generated in an assay substantially as described above in relation to Binding Assay (a). Some of the compounds shown in the table were tested more than once in the assay. For those compounds the IC50 value shown is the geometric mean of the measured IC50 values. […]

α5β1 integrin, sequence (P08648 42-894 limits assumed): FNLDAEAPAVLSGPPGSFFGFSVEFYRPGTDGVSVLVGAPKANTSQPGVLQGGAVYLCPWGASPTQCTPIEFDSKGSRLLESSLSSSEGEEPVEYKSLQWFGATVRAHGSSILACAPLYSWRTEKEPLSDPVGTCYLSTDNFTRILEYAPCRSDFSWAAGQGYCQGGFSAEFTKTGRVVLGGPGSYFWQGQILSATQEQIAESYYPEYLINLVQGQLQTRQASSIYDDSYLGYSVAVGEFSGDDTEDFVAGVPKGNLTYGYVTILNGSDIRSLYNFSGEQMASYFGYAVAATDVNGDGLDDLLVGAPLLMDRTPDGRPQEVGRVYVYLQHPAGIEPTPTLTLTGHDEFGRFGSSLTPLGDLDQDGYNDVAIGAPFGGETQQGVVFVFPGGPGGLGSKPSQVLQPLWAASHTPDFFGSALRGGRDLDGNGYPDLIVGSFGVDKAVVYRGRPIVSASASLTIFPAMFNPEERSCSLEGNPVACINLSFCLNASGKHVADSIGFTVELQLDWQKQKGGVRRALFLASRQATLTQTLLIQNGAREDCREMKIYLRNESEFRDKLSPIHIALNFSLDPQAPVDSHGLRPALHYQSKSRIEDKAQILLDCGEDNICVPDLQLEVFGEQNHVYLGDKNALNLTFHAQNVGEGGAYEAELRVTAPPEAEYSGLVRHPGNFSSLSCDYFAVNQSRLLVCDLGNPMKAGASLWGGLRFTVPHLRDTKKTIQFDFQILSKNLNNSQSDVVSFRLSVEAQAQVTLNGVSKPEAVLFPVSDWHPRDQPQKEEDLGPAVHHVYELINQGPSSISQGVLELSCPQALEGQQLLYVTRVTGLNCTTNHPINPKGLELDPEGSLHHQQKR
α5β1 integrin, sequence (P08648 895-1049 partner limits assumed): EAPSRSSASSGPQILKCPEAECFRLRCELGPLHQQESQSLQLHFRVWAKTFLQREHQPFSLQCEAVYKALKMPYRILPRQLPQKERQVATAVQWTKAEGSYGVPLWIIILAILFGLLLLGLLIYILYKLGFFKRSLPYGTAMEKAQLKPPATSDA
α5β1 integrin, sequence (P05556 21-798): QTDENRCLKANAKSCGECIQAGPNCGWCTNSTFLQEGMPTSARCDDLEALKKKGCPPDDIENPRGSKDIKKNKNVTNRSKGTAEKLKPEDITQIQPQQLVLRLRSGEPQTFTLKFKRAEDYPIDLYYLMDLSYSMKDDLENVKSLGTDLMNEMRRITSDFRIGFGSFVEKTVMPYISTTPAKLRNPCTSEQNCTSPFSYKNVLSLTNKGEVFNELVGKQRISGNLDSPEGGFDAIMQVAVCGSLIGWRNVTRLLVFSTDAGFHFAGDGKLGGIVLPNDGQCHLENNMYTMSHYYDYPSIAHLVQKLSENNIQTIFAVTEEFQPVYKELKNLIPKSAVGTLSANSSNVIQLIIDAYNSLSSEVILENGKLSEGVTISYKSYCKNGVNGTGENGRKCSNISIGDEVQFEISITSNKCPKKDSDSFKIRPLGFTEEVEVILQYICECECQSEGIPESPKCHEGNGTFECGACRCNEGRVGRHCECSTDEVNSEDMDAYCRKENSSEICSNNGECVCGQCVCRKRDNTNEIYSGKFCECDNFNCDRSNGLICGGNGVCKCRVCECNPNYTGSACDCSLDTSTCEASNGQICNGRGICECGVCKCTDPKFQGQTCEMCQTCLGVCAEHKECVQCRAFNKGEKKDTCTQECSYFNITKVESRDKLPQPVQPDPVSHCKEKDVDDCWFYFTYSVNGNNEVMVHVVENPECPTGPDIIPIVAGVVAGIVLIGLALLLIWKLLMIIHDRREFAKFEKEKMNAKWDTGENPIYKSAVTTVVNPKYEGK

pIC50 | SMILES
6.94 | CCC(=O)N[C@@H](Cc1ccc(OCCc2cccc(NC)n2)cc1)C(=O)O [Example 1.9, O-{2-[6-(methylamino)pyridin-2-yl]ethyl}-N-propionyl-L-tyrosine]
8.70 | CNc1cccc(CCOc2ccc(C[C@H](NC(=O)C(C)(C)C(=O)N3CCCC3)C(=O)O)cc2)n1 [Example 1.5, N-(2,2-dimethyl-3-oxo-3-pyrrolidin-1-ylpropanoyl)-O-{2-[6-(methylamino)pyridin-2-yl]ethyl}-L-tyrosine]
6.54 | CNc1cccc(CCOc2ccc(C[C@H](NC(=O)Cc3ccncc3)C(=O)O)cc2)n1 [Example 1.27, O-{2-[6-(methylamino)pyridin-2-yl]ethyl}-N-(pyridin-4-ylacetyl)-L-tyrosine]
7.31 | CNc1cccc(CCOc2ccc(C[C@H](NC(=O)C3CCC3)C(=O)O)cc2)n1 [Example 1.17, N-(cyclobutylcarbonyl)-O-{2-[6-(methylamino)pyridin-2-yl]ethyl}-L-tyrosine]
7.21 | CNc1cccc(CCOc2ccc(C[C@H](NC(=O)C3CCCN3C(C)C)C(=O)O)cc2)n1 (stereo partly drawn) [Example 4, N-[(1-isopropylpyrrolidin-2-yl)carbonyl]-O-{2-[6-(methylamino)pyridin-2-yl]ethyl}-L-tyrosine]
7.49 | CNc1cccc(CCOc2ccc(C[C@H](NC(=O)C3(CO)CCOCC3)C(=O)O)cc2)n1 [Example 1.20, N-{[4-(hydroxymethyl)tetrahydro-2H-pyran-4-yl]carbonyl}-O-{2-[6-(methylamino)pyridin-2-yl]ethyl}-L-tyrosine]
8.10 | CCCCC(CC)C(=O)N[C@@H](Cc1ccc(OCCc2cccc(NC)n2)cc1)C(=O)O (stereo partly drawn) [Example 1.12, N-(2-ethylhexanoyl)-O-{2-[6-(methylamino)pyridin-2-yl]ethyl}-L-tyrosine]
8.15 | CNc1cccc(CCOc2ccc(C[C@H](NC(=O)C3CCCCCC3)C(=O)O)cc2)n1 [Example 1.14, N-(cycloheptylcarbonyl)-O-{2-[6-(methylamino)pyridin-2-yl]ethyl}-L-tyrosine]
6.08 | CNc1cccc(CCOc2ccc(C[C@H](NC(=O)C(O)c3ccccc3)C(=O)O)cc2)n1 (stereo partly drawn) [Example 1.23, N-[hydroxy(phenyl)acetyl]-O-{2-[6-(methylamino)pyridin-2-yl]ethyl}-L-tyrosine]
6.44 | CC#CC(=O)N[C@@H](Cc1ccc(OCCc2cccc(NC)n2)cc1)C(=O)O [Example 1.8, N-but-2-ynoyl-O-{2-[6-(methylamino)pyridin-2-yl]ethyl}-L-tyrosine]
6.63 | CNc1cccc(CCOc2ccc(C[C@H](NC(=O)Cc3ccccn3)C(=O)O)cc2)n1 [Example 1.25, O-{2-[6-(methylamino)pyridin-2-yl]ethyl}-N-(pyridin-2-ylacetyl)-L-tyrosine]
8.05 | CNc1cccc(CCOc2ccc(C[C@H](NC(=O)C3CCCC3)C(=O)O)cc2)n1 [Example 1.16, N-(cyclopentylcarbonyl)-O-{2-[6-(methylamino)pyridin-2-yl]ethyl}-L-tyrosine]
7.35 | CNc1cccc(CCOc2ccc(C[C@H](NC(=O)C(c3ccccc3)c3ccccc3)C(=O)O)cc2)n1 [Example 1.24, N-(diphenylacetyl)-O-{2-[6-(methylamino)pyridin-2-yl]ethyl}-L-tyrosine]
8.30 | CNc1cccc(CCOc2ccc(C[C@H](NC(=O)C3(C)CCCCC3)C(=O)O)cc2)n1 [Example 1.1, O-{2-[6-(methylamino)pyridin-2-yl]ethyl}-N-[(1-methylcyclohexyl)carbonyl]-L-tyrosine]
9.00 | CC1(C(=O)N[C@@H](Cc2ccc(OCCc3ccc4c(n3)NCCC4)cc2)C(=O)O)CCCCC1 [Example 2.1, N-[(1-methylcyclohexyl)carbonyl]-O-[2-(5,6,7,8-tetrahydro-1,8-naphthyridin-2-yl)ethyl]-L-tyrosine]
8.30 | COC1(C(=O)N[C@@H](Cc2ccc(OCCc3ccc4c(n3)NCCO4)cc2)C(=O)O)CCOCC1 [Example 5.3, O-[2-(3,4-dihydro-2H-pyrido[3,2-b][1,4]oxazin-6-yl)ethyl]-N-[(4-methoxytetrahydro-2H-pyran-4-yl)carbonyl]-L-tyrosine]
6.28 | CNc1cccc(CCOc2ccc(C[C@H](NC(=O)Cc3cccnc3)C(=O)O)cc2)n1 [Example 1.26, O-{2-[6-(methylamino)pyridin-2-yl]ethyl}-N-(pyridin-3-ylacetyl)-L-tyrosine]
7.66 | CNc1cccc(CCOc2ccc(C[C@H](NC(=O)[C@H](C)OC)C(=O)O)cc2)n1 [Example 1.3, N-[(2S)-2-methoxypropanoyl]-O-{2-[6-(methylamino)pyridin-2-yl]ethyl}-L-tyrosine]
6.02 | CNc1cccc(CCOc2ccc(C[C@H](NC(=O)C3(O)CC3)C(=O)O)cc2)n1 [Example 1.6, N-[(1-hydroxycyclopropyl)carbonyl]-O-{2-[6-(methylamino)pyridin-2-yl]ethyl}-L-tyrosine]
7.54 | CNc1cccc(CCOc2ccc(C[C@H](NC(=O)[C@@H](C)OC)C(=O)O)cc2)n1 [Example 1.19, N-[(2R)-2-methoxypropanoyl]-O-{2-[6-(methylamino)pyridin-2-yl]ethyl}-L-tyrosine]
6.67 | CNc1cccc(CCOc2ccc(C[C@H](NC(=O)Cc3ccccc3)C(=O)O)cc2)n1 [Example 1.22, O-{2-[6-(methylamino)pyridin-2-yl]ethyl}-N-(phenylacetyl)-L-tyrosine]
7.35 | CNc1cccc(CCOc2ccc(C[C@H](NC(=O)CCc3ccccc3)C(=O)O)cc2)n1 [Example 1.21, O-{2-[6-(methylamino)pyridin-2-yl]ethyl}-N-(3-phenylpropanoyl)-L-tyrosine]
> 9.00 | CC1CCCCC1C(=O)N[C@@H](Cc1ccc(OCCc2ccc3c(n2)NCCC3)cc1)C(=O)O (stereo partly drawn) [Example 2.2, N-[(2-methylcyclohexyl)carbonyl]-O-[2-(5,6,7,8-tetrahydro-1,8-naphthyridin-2-yl)ethyl]-L-tyrosine]
7.14 | CNc1cccc(CCOc2ccc(C[C@H](NC(=O)C(C)C)C(=O)O)cc2)n1 [Example 1.11, N-isobutyryl-O-{2-[6-(methylamino)pyridin-2-yl]ethyl}-L-tyrosine]
7.47 | CNc1cccc(CCOc2ccc(C[C@H](NC(=O)C(C)(C)C)C(=O)O)cc2)n1 [Example 1.13, N-(2,2-dimethylpropanoyl)-O-{2-[6-(methylamino)pyridin-2-yl]ethyl}-L-tyrosine]
6.75 | CCCCCC(=O)N[C@@H](Cc1ccc(OCCc2cccc(NC)n2)cc1)C(=O)O [Example 1.10, N-hexanoyl-O-{2-[6-(methylamino)pyridin-2-yl]ethyl}-L-tyrosine]
8.15 | CNc1cccc(CCOc2ccc(C[C@H](NC(=O)C3CCCCC3C)C(=O)O)cc2)n1 (stereo partly drawn) [Example 1.2, O-{2-[6-(methylamino)pyridin-2-yl]ethyl}-N-[(2-methylcyclohexyl)carbonyl]-L-tyrosine]
6.97 | CNc1cccc(CCOc2ccc(C[C@H](NC(=O)C3CCCN3C)C(=O)O)cc2)n1 (stereo partly drawn) [Example 3, N-[(1-methylpyrrolidin-2-yl)carbonyl]-O-{2-[6-(methylamino)pyridin-2-yl]ethyl}-L-tyrosine]
6.22 | CNc1cccc(CCOc2ccc(C[C@H](NC(=O)C3CC3)C(=O)O)cc2)n1 [Example 1.18, N-(cyclopropylcarbonyl)-O-{2-[6-(methylamino)pyridin-2-yl]ethyl}-L-tyrosine]
7.96 | CC1(C(=O)N[C@@H](Cc2ccc(OCCc3ccc4c(n3)NCCO4)cc2)C(=O)O)CCCCC1 [Example 5.1, O-[2-(3,4-dihydro-2H-pyrido[3,2-b][1,4]oxazin-6-yl)ethyl]-N-[(1-methylcyclohexyl)carbonyl]-L-tyrosine]

— patent US20080182842A1, “L-alanine derivatives as a5beta1 antagonists” (ASTRAZENECA AB, priority 2007, published 2008)
